Legend:
TAAR13c = target: T1, TAAR13c (Danio rerio, UniProt Q5QNP2); assay: Dual-Glo Luciferase assay, TAAR13c-expressing HEK-293 cells; type: cell-based, zebrafish (Danio rerio)
T1 construct: expressed in transfected cells; host or cells: HEK-293
T1 sequence (Q5QNP2 1-341): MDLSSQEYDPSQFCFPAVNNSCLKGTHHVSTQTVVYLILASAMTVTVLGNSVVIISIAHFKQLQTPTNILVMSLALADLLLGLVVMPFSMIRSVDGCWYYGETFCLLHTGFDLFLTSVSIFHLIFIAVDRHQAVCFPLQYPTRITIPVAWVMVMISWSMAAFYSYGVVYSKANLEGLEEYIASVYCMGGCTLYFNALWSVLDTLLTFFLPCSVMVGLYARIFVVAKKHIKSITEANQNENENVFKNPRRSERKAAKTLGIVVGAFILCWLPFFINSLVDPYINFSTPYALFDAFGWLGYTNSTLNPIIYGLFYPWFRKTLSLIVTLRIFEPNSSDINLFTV
Protocol: Human embryonic kidney (HEK)-293 cells were cultured in Dulbecco's Modified Eagles Medium (DMEM) (HyClone, USA) containing 1% penicillin, 1% streptomycin (Gibco, USA) and 10% Fetal Bovine Serum (FBS)(Gibco, USA), under the conditions of 37° C. and 5% C02. Transfection was performed by the following method using Lipofectamine® 3000. Specifically, the cells were transfected with a DNA mixture containing TAAR13c, pCRE-Luc, pSV40-RL, Gαolf, and Receptor-transporting protein 1 short (RTP1S) using Lipofectamine® 3000. The characteristics against cadaverine were confirmed using the TAAR13c produced in Example 4 by the Dual-Glo Luciferase assay system. Specifically, the transfected cells were cultured in DMEM medium (50 μL) for 30 minutes, and an odorant (25 μL) designed to the desired concentration was added thereto, and cultured for 4 hours. Then, the Dual-Glo Luciferase reagent (20 μL) was added thereto, cultured at room temperature for 10 minutes, and the firefly luciferase luminescence was measured using the luminescence plate reader. Then, the Dual-Glo Stop-n-Glo reagent (20 μL) was added to the measured sample, and the mixture was cultured at room temperature for 10 minutes, and the Renilla luciferase luminescence was measured. The measured data was analyzed using the following formula. […]

[1] = target: T2, TAAR13c-embedded nanodiscs (T13NDs) (Danio rerio, UniProt Q5QNP2); assay: Real-time intrinsic tryptophan fluorescence of T13ND; type: binding, zebrafish (Danio rerio); conditions: excitation 290 nm; emission 340 nm; FIG. 11
T2 construct: His tag (from pET-DEST42) (C); made in house; host or cells: E. coli BL21 (DE3)
T2 sequence (Q5QNP2 1-341): T1 sequence (Q5QNP2 1-341)
Protocol: The intrinsic fluorescence of T13NDs was measured real time using the LS 55 luminescence spectrometer (Perkin Elmer, USA) (excitation 290 nm; emission 340 nm). The real-time measurement of intrinsic fluorescence of TAAR13c was measured at various amine concentrations of 1 mM to 10 mM.

[2] = system: HEK-293 cells transfected with a random vector (MocK); assay: Dual-Glo Luciferase assay, cells transfected with a random vector (MocK); type: cell-based, Human; conditions: Comparative Example, FIG. 5

selectivity of TAAR13c response among various amines (cell-based) (TAAR13c; FIG. 6): showed a response only against CV | response of TAAR13c-expressing cells to CV (normalised CRE/Renilla luciferase) (TAAR13c; concentration-dependent treatment of CV, 4 hours, FIG. 5): significant response | real-time tryptophan fluorescence of T13ND with increasing concentration of CV [1]: T13ND has an affinity for CV
SMILES: NCCCCCN [CV, cadaverine]
response of Mock-transfected cells to CV (normalised CRE/Renilla luciferase) [2]: did not show any significant response

Reference: US20210214401A1, “MANUFACTURING METHOD OF NANODISC COMPRISING AN OLFACTORY RECEPTOR PROTEIN AND NANODISC COMPRISING AN OLFACTORY RECEPTOR PROTEIN MANUFACTURED BY THE SAME” (SEOUL NATIONAL UNIVERSITY R&DB FOUNDATION, priority 2017, published 2021)
